# Laboratory results reported in patent US20260226064A1, “POLYCYCLIC COMPOUND FOR TREATING NEUROLOGICAL DISEASES AND TUMORS” (Shanghai Institute of Organic Chemistry, Chinese Academy of …, priority 2023, published 2026).
# Tested on: acetylated microtubule in HEK293T cells
# Test: Microtubule-Stabilizing Activity Assay (acetylated microtubule immunoblot, HEK293T, colchicine challenge)
# Format: cell-based
# Details: 1 h pre-incubation, then colchicine 1 μM 3 h, relative to CNDR-51657 at 500 nM = 1.00; for Microtubule-Stabilizing Activity 50 nM: compound 50 nM; for Microtubule-Stabilizing Activity 500 nM: compound 500 nM
# Procedure: Compound solvent: 100% dimethyl sulfoxide (DMSO). Cell line: HEK293T (ATCC, CRL3216). Culture conditions: Cells were cultured in Dulbecco's Modified Eagle's Medium (DMEM) containing 10% fetal bovine serum and 1% penicillin/streptomycin. Cells were cultured at 37° C. in a Thermo-Fisher incubator with a humidified atmosphere of 5% carbon dioxide.
# One day prior to the experiment, 100,000 cells were seeded at a density of 200,000 cells/ml in a 24-well plate.
# On the day of the experiment, 20 μl of PBS phosphate buffer containing the test compound at experimental concentrations or an equivalent volume of DMSO was added to each well. After incubating at 37° C. for 1 hour, colchicine was added to each well at a final concentration of 1 μM, followed by an additional 3-hour incubation at 37° C. The plate was then placed on ice. The medium in each well was removed, and the cells were washed with ice-cold PBS. After aspirating the PBS, 0.1 mL of ice-cold RIPA lysis buffer (containing 0.5% sodium deoxycholate, 0.1% SDS, 1% NP-40, 5 mM EDTA, pH 8.0) was quickly added. Prior to use, a commercial protease inhibitor cocktail (1:500) and 1 μM deacetylase inhibitor Trichostatin A (Sangon Biotech Co., Ltd.) were added to the cell lysis buffer. The cell lysate were transferred to a 1.5 ml centrifuge tube, sonicated, and centrifuged at 13,000 rpm for 10 minutes. The supernatant was collected, and protein concentration was determined using the BCA assay.
# Based on existing literature (Black, 1989; Kurt, 2011), acetylated microtubule was used as an indicator of microtubule polymerization to assess the microtubule-stabilizing efficacy of the compounds. HEK293T cell lysates were analyzed by SDS-PAGE (7.5% gel) and immunoblotted using acetylated microtubule antibody (1:20,000, Sigma-Aldrich, T7451) and α-microtubule antibody (1:2,000, Proteintech, 11224-1-AP). After incubation with fluorescent dye-conjugated IgG (1:40,000, Licor), the blots were visualized using an Odyssey-Dlx imaging system. Grayscale analysis was performed using ImageJ.
# The compound activity was quantified with the microtubule-stabilizing activity of CNDR-51657 (C5) (Jane, 2016) at 500 nM as 1.00.
Structure (SMILES),Microtubule-Stabilizing Activity 50 nM,Microtubule-Stabilizing Activity 500 nM
"C[C@H](Nc1c(-c2c(F)cc(O[C@@H]3C[C@@H]4CN(C)C[C@@H]4C3)cc2F)c(Cl)nc2ncnn12)C(F)(F)F [Example 39, 5-Chloro-6-(2,6-difluoro-4-(((3aR,5r,6aS)-2-methyloctahydrocyclopenta[c]pyrrol-5-yl)oxy)phenyl)-N—((S)-1,1,1-trifluoropropan-2-yl)-[1,2,4]triazolo[1,5-a]pyrimidin-7-amine]",0.29,0.45
CC(C)[C@@H](C)Nc1c(-c2c(F)cc(O[C@@H]3C[C@H]4CNC[C@H]4C3)cc2F)c(Cl)nc2ncnn12 [Example 40],0.17,0.69
"CC(C)[C@@H](C)Nc1c(-c2c(F)cc(O[C@H]3C[C@@H]4CN(C)C[C@@H]4C3)cc2F)c(Cl)nc2ncnn12 [Example 41, 5-Chloro-6-(2,6-difluoro-4-(((3aR,5s,6aS)-2-methyloctahydrocyclopenta[c]pyrrol-5-yl)oxy)phenyl)-N—((R)-3-methylbutan-2-yl)-[1,2,4]triazolo[1,5-a]pyrimidin-7-amine]",0.11,1.93
"C[C@H](Nc1c(-c2c(F)cc(O[C@@H]3C[C@H]4CNC[C@H]4C3)cc2F)c(Cl)nc2ncnn12)C(F)(F)F [Example 42, 5-Chloro-6-(2,6-difluoro-4-(((3aR,5s,6aS)-octahydrocyclopenta[c]pyrrol-5-yl)oxy)phenyl)-N—((S)-1,1,1-trifluoropropan-2-yl)-[1,2,4]triazolo[1,5-a]pyrimidin-7-amine]",0.25,0.73
"C[C@H](Nc1c(-c2c(F)cc(O[C@H]3C[C@@H]4CN(C)C[C@@H]4C3)cc2F)c(Cl)nc2ncnn12)C(F)(F)F [Example 43, 5-Chloro-6-(2,6-difluoro-4-(((3aR,5s,6aS)-2-methyloctahydrocyclopenta[c]pyrrol-5-yl)oxy)phenyl)-N—((S)-1,1,1-trifluoropropan-2-yl)-[1,2,4]triazolo[1,5-a]pyrimidin-7-amine]",0.09,2.69
"CC(C)[C@@H](C)Nc1c(-c2c(F)cc(C#C[C@@H]3[C@H]4CNC[C@@H]34)cc2F)c(Cl)nc2ncnn12.Cl [Example 44, 6-(4-(((1R,5S,6s)-3-Azabicyclo[3.1.0]hexan-6-yl)ethynyl)-2,6-difluorophenyl)-5-chloro-N—((R)-3-methylbutan-2-yl)-[1,2,4]triazolo[1,5-a]pyrimidin-7-amine hydrochloride]",–,1.6
"C[C@@H](Nc1c(-c2c(F)cc(C#C[C@@H]3[C@H]4CNC[C@@H]34)cc2F)c(Cl)nc2ncnn12)C1CCC1.Cl [Example 45, 6-(4-(((1R,5S,6s)-3-Azabicyclo[3.1.0]hex-6-yl)ethynyl)-2,6-difluorophenyl)-5-chloro-N—((R)-1-cyclobutylethyl)-[1,2,4]triazolo[1,5-a]pyrimidin-7-amine hydrochloride]",1.1,1.3
C[C@H](Nc1c(-c2c(F)cc(C#C[C@@H]3[C@H]4CNC[C@@H]34)cc2F)c(Cl)nc2ncnn12)C(F)(F)F.Cl [Example 47],1.23,1.38
"Cl.Fc1cc(C#C[C@@H]2[C@H]3CNC[C@@H]23)cc(F)c1-c1c(Cl)nc2ncnn2c1NCC(F)(F)F [Example 49, 6-(4-(((1R,5S,6s)-3-Azabicyclo[3.1.0]hexan-6-yl)ethynyl)-2,6-difluorophenyl)-5-chloro-N-(2,2,2-trifluoroethyl)-[1,2,4]triazolo[1,5-a]pyrimidin-7-amine hydrochloride]",1.04,1.74
"CN1C[C@@H]2C(C#Cc3cc(F)c(-c4c(Cl)nc5ncnn5c4NCC(F)(F)F)c(F)c3)[C@@H]2C1 (stereo partly drawn) [Example 50, 5-Chloro-6-(2,6-difluoro-4-(((1R,5S,6s)-3-methyl-3-azabicyclo[3.1.0]hexan-6-yl)ethynyl)phenyl)-N-(2,2,2-trifluoroethyl)-[1,2,4]triazolo[1,5-a]pyrimidin-7-amine]",2.0,2.78
"CC(C)[C@@H](C)Nc1c(-c2c(F)cc(/C=C/[C@@H]3[C@H]4CNC[C@@H]34)cc2F)c(Cl)nc2ncnn12.Cl [Example 51, 6-(4-((E)-2-((1R,5S,6s)-3-Azabicyclo[3.1.0]hexan-6-yl)vinyl)-2,6-difluorophenyl)-5-chloro-N—((R)-3-methylbutan-2-yl)-[1,2,4]triazolo[1,5-a]pyrimidin-7-amine hydrochloride]",–,1.85
"C[C@@H](Nc1c(-c2c(F)cc(/C=C/[C@@H]3[C@H]4CNC[C@@H]34)cc2F)c(Cl)nc2ncnn12)C1CCC1.Cl [Example 52, 6-(4-((E)-2-((1R,5S,6s)-3-Azabicyclo[3.1.0]hexan-6-yl)vinyl)-2,6-difluorophenyl)-5-chloro-N—((R)-1-cyclobutylethyl)-[1,2,4]triazolo[1,5-a]pyrimidin-7-amine hydrochloride]",1.41,1.69
"C[C@H](Nc1c(-c2c(F)cc(/C=C/[C@@H]3[C@H]4CNC[C@@H]34)cc2F)c(Cl)nc2ncnn12)C(F)(F)F.Cl [Example 53, 6-(4-((E)-2-((1R,5S,6s)-3-Azabicyclo[3.1.0]hexan-6-yl)vinyl)-2,6-difluorophenyl)-5-chloro-N—((S)-1,1,1-trifluoropropan-2-yl)-[1,2,4]triazolo[1,5-a]pyrimidin-7-amine hydrochloride]",1.23,1.38
"Cl.Fc1cc(/C=C/[C@@H]2[C@H]3CNC[C@@H]23)cc(F)c1-c1c(Cl)nc2ncnn2c1NCC(F)(F)F [Example 54, 6-(4-((E)-2-((1R,5S,6s)-3-Azabicyclo[3.1.0]hexan-6-yl)vinyl)-2,6-difluorophenyl)-5-chloro-N-(2,2,2-trifluoroethyl)-[1,2,4]triazolo[1,5-a]pyrimidin-7-amine hydrochloride]",1.56,3.12
"C[C@@H](Nc1c(-c2c(F)cc(/C=C/[C@@H]3[C@H]4CN(C)C[C@@H]34)cc2F)c(Cl)nc2ncnn12)C1CCC1 [Example 56, 5-Chloro-N—((R)-1-cyclobutylethyl)-6-(2,6-difluoro-4-((E)-2-((1R,5S,6s)-3-methyl-3-azabicyclo[3.1.0]hexan-6-yl)vinyl)phenyl)-[1,2,4]triazolo[1,5-a]pyrimidin-7-amine]",1.47,1.69
CC(C)[C@@H](C)Nc1c(-c2c(F)cc(/C=C/[C@@H]3[C@H]4CN(C)C[C@@H]34)cc2F)c(Cl)nc2ncnn12 [Example 59],0.61,1.87
